# Patent US11230535B2, “CFTR regulators and methods of use thereof” (THE REGENTS OF THE UNIVERSITY OF CALIFORNIA, priority 2015, dated 2022)
# “Also recorded” adds a separate entry of the source.
# Legend:
# cAMP = cAMP GloSensor luminescence assay in FRT cells; assay type: cell-based, rat
# Procedure: Intracellular cAMP activity was measured using a GloSensor luminescence assay (Promega Corp., Madison, Wis., USA). FRT null cells were stably transfected with the pGloSensor cAMP plasmid and plated onto white 96-well microplates and grown to confluence. Cells were washed three times with PBS and incubated with 5 μM CFTRact-J027 for 10 min in the absence and presence of 100 nM forskolin. cAMP was assayed according to the manufacturer's instructions.
# Intracellular cAMP activity was measured using a GloSensor luminescence assay (Promega Corp., Madison, Wis., USA). FRT cells stably transfected with the pGloSensor cAMP plasmid (Promega Corp.) were cultured in white 96-well microplates (Corning Costar) overnight. Cells were then washed three times with PBS and incubated with 5 μM test compound for 10 min in the absence and presence of 100 nM forskolin.
# cAMP assay. Intracellular cAMP activity was measured using a GloSensor luminescence assay (Promega Corp., Madison, Wis., USA). FRT null cells were stably transfected with the pGloSensor cAMP plasmid and plated onto white 96-well microplates and grown to confluence. […]
# cAMP and cytotoxicity assays. Intracellular cAMP activity was measured using a GloSensor luminescence assay (Promega Corp., Madison, Wis., USA). […]
# mice = assay: In vivo whole-gut transit time; design: species or system mouse
# Procedure: (§1) Whole-gut transit time was determined using an orally administered marker (200 μL, 5% Evans Blue, 5% gum Arabic) and measuring the time of its appearance in stool. Mice were administered loperamide and CFTRact-J027 (10 mg/kg) or vehicle intraperitoneally at zero time. For ex vivo contractility measurements, mice were euthanized by avertin overdose (200 mg/kg, 2,2,2-tribromethanol, Sigma-Aldrich) and ileum and colon segments of ˜2 cm length were isolated and washed with Krebs-Henseleit buffer. The ends of the intestinal segments were tied, connected to a force transducer (Biopac Systems, Goleta, Calif., USA) and tissues were transferred to an organ chamber (Biopac Systems) containing Krebs-Henseleit buffer at 37° C. aerated with 95% O2, 5% CO2. Ileum and colon were stabilized for 60 min with resting tensions of 0.5 and 0.2 g respectively, and solutions were changed every 15 min. Effects of CFTRact-J027 on baseline and loperamide-suppressed isometric intestinal contractions were recorded.
# (§2) In vivo intestinal transit and ex vivo intestinal contractility. Whole-gut transit time was determined using an orally administered marker (200 μL, 5% Evans Blue, 5% gum Arabic) and measuring the time of its appearance in stool. […] Effects of CFTRact-J027 on baseline and loperamide-suppressed isometric intestinal contractions were recorded.
# [1] = test system: isolated mouse ileum and colon strips; assay: Ex vivo contractility of isolated ileum and colon strips; settings: alone or with 10 μM loperamide
# Procedure: as §1, §2
# [2] = Pharmacokinetics in mice (plasma LC/MS); assay type: in vivo, mouse
# Procedure: (§3) All animal experiments were approved by UCSF Institutional Animal Care and Use Committee. Female CD1 mice were treated with 10 mg/kg CFTRact-J027 (saline containing 5% DMSO and 10% Kolliphor HS 15) either intraperitoneally (ip) or orally. Blood was collected at 15, 30, 60, 150, 240 and 360 min after treatment by orbital puncture and centrifuged at 5000 rpm for 15 min to separate plasma. Plasma samples (60 μL) were mixed with 300 μL acetonitrile and centrifuged at 13000 rpm for 20 min, and 90 μL of the supernatant was used for LC/MS. The solvent system consisted of a linear gradient from 5 to 95% acetonitrile over 16 min (0.2 ml/min flow). Mass spectra was acquired on a mass spectrometer (Waters 2695 and Micromass ZQ) using electrospray (+) ionization, mass ranging from 100 to 1500 Da, cone voltage 40 V. Calibration standards were prepared in plasma from untreated mice to which known amounts of CFTRact-J027 were added.
# as §3, with “Pharmacokinetics. All” for “All”
smiles,measurement,setting,value
"Nc1ccc([N+](=O)[O-])cc1-c1nc2ccccc2n(Cc2ccccc2)c1=O [CFTRact-J027, 3-(2-amino-5-nitrophenyl)-1-benzylquinoxalin-2(1H)-one]","cellular cAMP, added together with forskolin",cAMP; 5 μM + 100 nM forskolin,does not further increase cAMP
same,"cellular cAMP, compound alone","cAMP; 5 μM, 10 min",without causing elevation of cytoplasmic cAMP; also recorded: does not elevate cellular cAMP
same,whole-gut transit time,"mice; 10 mg/kg ip, loperamide-treated wild-type mice",normalized
same,whole-gut transit time in cystic fibrosis mice,mice; CF mice,no effect
same,intestinal contraction,[1],no effect
same,serum elimination half-life,[2]; 10 mg/kg ip,~16 min
same,serum concentration at 150 min,"[2]; 10 mg/kg ip, 150 min",undetectable
same,"bioavailability, in words",[2]; 10 mg/kg oral,very low bioavailability; also recorded: minimal bioavailability
same,blood levels,[2]; 10 mg/kg oral,< 200 nM
same,serum concentration at other time points,[2]; 10 mg/kg oral,undetectable
same,serum concentration at 30 min,"[2]; 10 mg/kg oral, 30 min",180 nM
